Source: patent US20100240642A1, “1H-Indole-2-Carboxylic Acid Derivatives Useful As PPAR Modulators” (SMITHKLINE BEECHAM CORPORATION, priority 2006, published 2010)

The molecules below were run against T1, hPPARγ receptor (Homo sapiens, UniProt P37231) (assay: PPARγ Cell-based luciferase assay). Conditions: CV-1, read-out: agonism of the hPPARγ receptor (activation relative to full agonist rosiglitazone).
T1 construct: expressed in transfected cells; host or cells: CV-1 (African Green Monkey kidney, ATCC CCL-70)
T1 sequence (P37231 172-475 isoform P37231-2): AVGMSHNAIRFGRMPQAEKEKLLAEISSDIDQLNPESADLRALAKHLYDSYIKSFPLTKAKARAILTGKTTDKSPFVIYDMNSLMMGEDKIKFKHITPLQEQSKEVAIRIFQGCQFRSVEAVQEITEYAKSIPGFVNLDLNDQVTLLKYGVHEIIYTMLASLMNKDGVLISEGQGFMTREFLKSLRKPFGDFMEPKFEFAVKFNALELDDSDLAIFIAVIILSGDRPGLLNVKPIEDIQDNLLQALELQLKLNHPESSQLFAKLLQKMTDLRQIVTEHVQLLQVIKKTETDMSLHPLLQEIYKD
From the text: Plasmids—PCR primers containing Kpnl and BamHI restriction sites were used to amplify PPARγ ligand binding domain (LBD) fragment (172-475) from a full-length human clone. The LBD fragment was ligated into the multiple cloning site of pFA-CMV (Stratagene). The resulting construct (pFA-CMV-GAL4-hPPARγLBD carried a fusion of the LBD with the yeast-derived GAL4 DNA-binding domain under the control of the CMV immediate early promoter. Reporter construct UAStkLuc carries a single 17 bp (CGGAGTACTGTCCTCCG) upstream activating sequence (UAS), the tk minimal promoter, and the firefly luciferase gene. The integrity of each construct was confirmed by diagnostic restriction digestion and by sequencing. Plasmid DNA was prepared using Qiagen Maxi-Prep kits.
PPARγ Cell-based luciferase assay—African Green Monkey kidney cell line CV-1 (ATCC CCL-70) was maintained in Dulbecco's Modified Eagle's Medium (D-MEM) containing 10% fetal bovine serum, 2 mM glutamine, and 1% penicillin/streptomycin (pen/strep). In preparation for luciferase assays, CV-1 cells were grown in charcoal-stripped cell medium containing D-MEM/F-12 medium supplemented with 5% or 3% dextran-treated/charcoal-stripped (CS) fetal bovine serum, 2 mM glutamine, with or without 1% pen/strep, as described below. CS fetal bovine serum was purchased from Hyclone; all other cell culture reagents were from Gibco.
The luciferase protocol is a multi-day procedure. On day 1, confluent cells in maintenance medium were subcultured 1:10 into T-175 cm^2 flasks containing 50 mL of 3% CS medium with pen/strep. These flasks were allowed to incubate at 5% CO2 and 37° C. for 72 hours.
Cells were harvested by trypsinization and then transfected using FuGENE (Roche) according to the manufacturer's specifications. Briefly, each transfection contained 0.55 μg pFA_CMV_GAL4_hPPARγ_LBD plasmid, 10.9 μg UAStkLUC, and 24 μg pBluescript (carrier DNA). Plasmid DNA was mixed with FuGENE in OptiMEM-1 medium and incubated for 30 min at room temperature. During this incubation, cells were harvested into 3% CS medium without pen-strep and dispensed at 14 million cells per T-175 cm^2 flask. Transfection mixes were added to the flasks and incubated overnight at 5% CO2 and 37° C.
Transfected cells were added to 384-well plates containing pharmacological agents. Rosiglitazone standard was reconstituted in DMSO at 1 mM. For 11-point dose-response experiments, the compounds were 3-fold serially diluted in DMSO and then stamped to 384-well assay plates (NUNC, catalog #164564) at 0.5 μL/well using a Beckman FX. DMSO and agonist control compound Rosiglitazone (1 mM) were each stamped at 0.5 μL/well to columns 23 and 24, respectively, of the 384-well plates. Transfected cells were harvested in 5% CS medium with pen/strep and dispensed at 10,000 cells/well (50 μL) onto the prepared 384-well compound plates using a Titertek Multidrop. Following overnight incubation at 5% CO2 and 37° C., Steady-Glo reagent (Promega) was added to the assay plates using a Multidrop. Plates were incubated for 10 min to ensure complete cell lysis and read in a ViewLux (PerkinElmer). […] Partial agonism is defined here as 20-80% activation (relative to full agonist rosiglitazone) at concentrations of 10^−6 M or less.

SMILES	Emax [%]
COCCOc1cc(Cn2c(C(=O)O)c(-c3ccc(C(C)(C)C)cc3)c3ccccc32)cc(OC(=O)N2CCN(C)CC2)c1 [Example 50, 3-[4-(1,1-dimethylethyl)phenyl]-1-[(3-{[2-(methyloxy)ethyl]oxy}-5-{[(4-methyl-1-piperazinyl)carbonyl]oxy}phenyl)methyl]-1H-indole-2-carboxylic acid]	20 to 80
COCCOc1cc(Cn2c(C(=O)O)c(-c3ccc(C(C)(C)C)cc3)c3ccccc32)cc(OC(=O)N2CCNC2=O)c1 [Example 53, 3-[4-(1,1-dimethylethyl)phenyl]-1-[(3-{[2-(methyloxy)ethyl]oxy}-5-{[(2-oxo-1-imidazolidinyl)carbonyl]oxy}phenyl)methyl]-1H-indole-2-carboxylic acid]	20 to 80

Same assay, conditions: CV-1 cells transfected with GAL4-hPPARγ LBD and UAStkLuc; at concentrations of 10^−6 M or less; read-out: agonism of the hPPARγ receptor (activation relative to full agonist rosiglitazone)

SMILES	Emax [%]
Cc1ccc(-c2ccc(C(=O)O)cc2)cc1Cn1c(C(=O)O)c(-c2ccc(C(C)(C)C)cc2)c2ccccc21 [Example 11, 1-[(4′-carboxy-4-methyl-3-biphenylyl)methyl]-3-[4-(1,1-dimethylethyl)phenyl]-1H-indole-2-carboxylic acid]	20 to 80
COc1cc(Cn2c(C(=O)O)c(-c3ccc(C(C)(C)C)cc3)c3ccccc32)cc(-c2ccc(C(=O)O)cc2)c1 [Example 18, 1-{[4′-carboxy-5-(methyloxy)-3-biphenylyl]methyl}-3-[4-(1,1-dimethylethyl)phenyl]-1H-indole-2-carboxylic acid]	20 to 80
CC(C)(C)c1ccc(-c2c(C(=O)O)n(Cc3cc(OCCN4CCOCC4)cc(OCC4CC4)c3)c3ccccc23)cc1 [Example 42, 1-[(3-[(cyclopropylmethyl)oxy]-5-{[2-(4-morpholinyl)ethyl]oxy}phenyl)methyl]-3-[4-(1,1-dimethylethyl)phenyl]-1H-indole-2-carboxylic acid]	20 to 80
CC(C)OC(=O)N1CCN(c2cccc(Cn3c(C(=O)O)c(-c4ccc(C(C)(C)C)cc4)c4ccccc43)c2)CC1 [Example 47, 3-[4-(1,1-dimethylethyl)phenyl]-1-{[3-(4-{[(1-methylethyl)oxy]carbonyl}-1-piperazinyl)phenyl]methyl}-1H-indole-2-carboxylic acid]	20 to 80
Cc1ccc(N2CCOCC2)cc1Cn1c(C(=O)O)c(-c2ccc(C(C)(C)C)cc2)c2ccccc21 [Example 27, 3-[4-(1,1-dimethylethyl)phenyl]-1-{[2-methyl-5-(4-morpholinyl)phenyl]methyl}-1H-indole-2-carboxylic acid]	20 to 80
CC(C)(C)c1ccc(-c2c(C(=O)O)n(Cc3cccc(N4CCSCC4)c3)c3ccccc23)cc1 [Example 44, 3-[4-(1,1-dimethylethyl)phenyl]-1-{[3-(4-thiomorpholinyl)phenyl]methyl}-1H-indole-2-carboxylic acid]	20 to 80
CSc1cccc(-c2ccc(C)c(Cn3c(C(=O)O)c(-c4ccc(C(C)(C)C)cc4)c4ccccc43)c2)c1 [Example 17, 3-[4-(1,1-dimethylethyl)phenyl]-1-{[4-methyl-3′-(methylthio)-3-biphenylyl]methyl}-1H-indole-2-carboxylic acid]	20 to 80
CC(C)(C)c1ccc(-c2c(C(=O)O)n(Cc3cc(O)cc(OCC4CC4)c3)c3ccccc23)cc1 [Example 3, 1-({3-[(cyclopropylmethyl)oxy]-5-hydroxyphenyl}methyl)-3-[4-(1,1-dimethylethyl)phenyl]-1H-indole-2-carboxylic acid]	20 to 80
CC(C)(C)c1ccc(-c2c(C(=O)O)n(Cc3cccc(N4CCOCC4)c3)c3ccccc23)cc1 [Example 26, 3-[4-(1,1-dimethylethyl)phenyl]-1-{[3-(4-morpholinyl)phenyl]methyl}-1H-indole-2-carboxylic acid]	20 to 80
CC(C)(C)c1ccc(-c2c(C(=O)O)n(Cc3cccc(-c4ccc(C(=O)O)cc4)c3)c3ccccc23)cc1 [Example 7, 1-[(4′-carboxy-3-biphenylyl)methyl]-3-[4-(1,1-dimethylethyl)phenyl]-1H-indole-2-carboxylic acid]	20 to 80
O=C(O)c1c(Cc2cccc(C(F)(F)F)c2)c2ccccc2n1Cc1cc(OCC2CC2)cc(OCC2CC2)c1 [Example 59, 1-({3,5-bis[(cyclopropylmethyl)oxy]phenyl}methyl)-3-{[3-(trifluoromethyl)phenyl]methyl}-1H-indole-2-carboxylic acid]	20 to 80
COc1ccc(-c2c(C(=O)O)n(Cc3cc(-c4ccc(C(=O)O)cc4)ccc3C)c3ccccc23)cn1 [Example 21, 1-[(4′-carboxy-4-methyl-3-biphenylyl)methyl]-3-[6-(methyloxy)-3-pyridinyl]-1H-indole-2-carboxylic acid]	20 to 80
COCCOc1cc(Cn2c(C(=O)O)c(-c3ccc(C(C)(C)C)cc3)c3ccccc32)cc(OC(=O)N2CCCCC2)c1 [Example 51, 3-[4-(1,1-dimethylethyl)phenyl]-1-({3-{[2-(methyloxy)ethyl]oxy}-5-[(1-piperidinylcarbonyl)oxy]phenyl}methyl)-1H-indole-2-carboxylic acid]	20 to 80
CN(C)CCOc1cc(Cn2c(C(=O)O)c(-c3ccc(C(C)(C)C)cc3)c3ccccc32)cc(OCC2CC2)c1 [Example 40, 1-[(3-[(cyclopropylmethyl)oxy]-5-{[2-(dimethylamino)ethyl]oxy}phenyl)methyl]-3-[4-(1,1-dimethylethyl)phenyl]-1H-indole-2-carboxylic acid]	20 to 80
Cc1ccc(-c2ccc(C(=O)NCCc3cccs3)cc2)cc1Cn1c(C(=O)O)c(-c2ccc(C(C)(C)C)cc2)c2ccccc21 [Example 33, 3-[4-(1,1-dimethylethyl)phenyl]-1-{[4-methyl-4′-({[2-(2-thienyl)ethyl]amino}carbonyl)-3-biphenylyl]methyl}-1H-indole-2-carboxylic acid]	20 to 80
CC(C)(C)c1ccc(-c2c(C(=O)O)n(Cc3cc(OCCN4CCCC4)cc(OCC4CC4)c3)c3ccccc23)cc1 [Example 41, 1-[(3-[(cyclopropylmethyl)oxy]-5-{[2-(1-pyrrolidinyl)ethyl]oxy}phenyl)methyl]-3-[4-(1,1-dimethylethyl)phenyl]-1H-indole-2-carboxylic acid]	20 to 80
CC(C)(C)c1ccc(-c2c(C(=O)O)n(Cc3cc(O)cc(-c4ccc(C(=O)O)cc4)c3)c3ccccc23)cc1 [Example 22, 1-[(4′-carboxy-5-hydroxy-3-biphenylyl)methyl]-3-[4-(1,1-dimethylethyl)phenyl]-1H-indole-2-carboxylic acid]	20 to 80
Cc1ccc(-c2ccc(C(=O)NCc3cccs3)cc2)cc1Cn1c(C(=O)O)c(-c2ccc(C(C)(C)C)cc2)c2ccccc21 [Example 32, 3-[4-(1,1-dimethylethyl)phenyl]-1-[(4-methyl-4′-{[(2-thienylmethyl)amino]carbonyl}-3-biphenylyl)methyl]-1H-indole-2-carboxylic acid]	20 to 80

The molecules below were run on Male Zucker Diabetic Fatty rats (assay: In vivo evaluation: serum glucose in Zucker Diabetic Fatty rats). Conditions: 10 mg/kg once daily by oral gavage, 28 days, percent reduction from vehicle control at day 28 relative to normalization (140 mg/dL).
Design: species or system rat
Protocol: Male Zucker Diabetic Fatty rats were lightly anesthetized with isofluorane gas and bleed by tail vein to obtain postprandial baseline concentrations for serum glucose, serum lipids and insulin. Animals were baseline matched by serum glucose and randomized into vehicle or treatment groups with compound administration by oral gavage beginning at 6.5 weeks of age. Selected compounds were administered once daily at 10 mg/kg in 25 mM N-Methyl-Glucamine with 5% w/v Solutol HS15. After 28 consecutive days of treatment, blood samples were obtained and analyzed for serum glucose. Values in Table 1 for % Glucose reduction represent a summary of the percent reduction from vehicle control animals at day 28 relative to normalization defined in this model as serum glucose levels of 140 mg/dL.

SMILES	% Glucose Reduction [%]
Cc1ccc(-c2ccc(C(=O)O)cc2)cc1Cn1c(C(=O)O)c(-c2ccc(C(C)(C)C)cc2)c2ccccc21 [Example 11, 1-[(4′-carboxy-4-methyl-3-biphenylyl)methyl]-3-[4-(1,1-dimethylethyl)phenyl]-1H-indole-2-carboxylic acid]	49
COc1cc(Cn2c(C(=O)O)c(-c3ccc(C(C)(C)C)cc3)c3ccccc32)cc(-c2ccc(C(=O)O)cc2)c1 [Example 18, 1-{[4′-carboxy-5-(methyloxy)-3-biphenylyl]methyl}-3-[4-(1,1-dimethylethyl)phenyl]-1H-indole-2-carboxylic acid]	44
CC(C)(C)c1ccc(-c2c(C(=O)O)n(Cc3cc(OCCN4CCOCC4)cc(OCC4CC4)c3)c3ccccc23)cc1 [Example 42, 1-[(3-[(cyclopropylmethyl)oxy]-5-{[2-(4-morpholinyl)ethyl]oxy}phenyl)methyl]-3-[4-(1,1-dimethylethyl)phenyl]-1H-indole-2-carboxylic acid]	82
